The values that follow come from patent US8198273B2, “Compounds and methods for kinase modulation, and indications therefor” (Plexxikon Inc., priority 2009, dated 2012).

Where only a bound is given, the exact number is not on record here.

The target of series [1] is B-Raf V600E (Homo sapiens, UniProt P15056, V600E). Kind of series: B-Raf V600E biochemical kinase inhibition (AlphaScreen, biotin-MEK1 substrate). The conditions noted are these: 100 μM ATP. An outline of the steps:
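Serial 1:3 dilutions of compound (0.1 mM DMSO stock, eight points) were added first, then ATP to start the reaction at 100 μM final.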

For series [2], the system named is A375 melanoma cells (B-Raf V600E). Description: A375 cell growth inhibition (ATPlite). The format is cell-based. To be noted: Homo sapiens, A-375, 72 h; A375, 3 days incubation. An outline of the steps: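 ATPlite luminescence, taken as a cell-number measure, gave IC50 values after a 3-day 37° C, 5% CO2 incubation. Compounds were tested as 8-point threefold titrations, highest final concentration 10 μM, added to cells seeded the day before.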
On the technique in general: Cellular ATP, detected with luciferase, serves as a proxy for viable cell number.

For series [3], the target named is T1, CYP1A2 (Homo sapiens, UniProt P05177).
T1 sequence (P05177 1-516): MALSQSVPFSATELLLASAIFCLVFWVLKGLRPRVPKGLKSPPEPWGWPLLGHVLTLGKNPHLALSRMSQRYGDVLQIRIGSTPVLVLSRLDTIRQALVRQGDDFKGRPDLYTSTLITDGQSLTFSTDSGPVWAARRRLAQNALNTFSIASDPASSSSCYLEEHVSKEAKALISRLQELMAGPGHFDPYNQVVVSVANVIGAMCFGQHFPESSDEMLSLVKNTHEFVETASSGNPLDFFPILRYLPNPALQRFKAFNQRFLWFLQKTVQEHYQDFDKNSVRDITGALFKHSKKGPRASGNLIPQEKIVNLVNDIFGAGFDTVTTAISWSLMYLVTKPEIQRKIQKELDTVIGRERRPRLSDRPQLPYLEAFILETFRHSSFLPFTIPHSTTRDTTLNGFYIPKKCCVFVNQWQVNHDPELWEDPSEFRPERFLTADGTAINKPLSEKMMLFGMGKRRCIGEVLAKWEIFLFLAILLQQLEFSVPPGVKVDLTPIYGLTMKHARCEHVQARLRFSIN
Description: CYP1A2 inhibition (fluorescent substrate). The format is in vitro ADME. To be noted: CYP1A2, CEC substrate; read-out: Cyp IC50 1A2. An outline of the steps: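 First, 100 mM DMSO stocks are diluted into acetonitrile, then twofold through co-factor mix for 10 points. Next, mixtures are preincubated 10 min at 37 °C.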

Sequence of B-Raf V600E (P15056 whole entry V600E): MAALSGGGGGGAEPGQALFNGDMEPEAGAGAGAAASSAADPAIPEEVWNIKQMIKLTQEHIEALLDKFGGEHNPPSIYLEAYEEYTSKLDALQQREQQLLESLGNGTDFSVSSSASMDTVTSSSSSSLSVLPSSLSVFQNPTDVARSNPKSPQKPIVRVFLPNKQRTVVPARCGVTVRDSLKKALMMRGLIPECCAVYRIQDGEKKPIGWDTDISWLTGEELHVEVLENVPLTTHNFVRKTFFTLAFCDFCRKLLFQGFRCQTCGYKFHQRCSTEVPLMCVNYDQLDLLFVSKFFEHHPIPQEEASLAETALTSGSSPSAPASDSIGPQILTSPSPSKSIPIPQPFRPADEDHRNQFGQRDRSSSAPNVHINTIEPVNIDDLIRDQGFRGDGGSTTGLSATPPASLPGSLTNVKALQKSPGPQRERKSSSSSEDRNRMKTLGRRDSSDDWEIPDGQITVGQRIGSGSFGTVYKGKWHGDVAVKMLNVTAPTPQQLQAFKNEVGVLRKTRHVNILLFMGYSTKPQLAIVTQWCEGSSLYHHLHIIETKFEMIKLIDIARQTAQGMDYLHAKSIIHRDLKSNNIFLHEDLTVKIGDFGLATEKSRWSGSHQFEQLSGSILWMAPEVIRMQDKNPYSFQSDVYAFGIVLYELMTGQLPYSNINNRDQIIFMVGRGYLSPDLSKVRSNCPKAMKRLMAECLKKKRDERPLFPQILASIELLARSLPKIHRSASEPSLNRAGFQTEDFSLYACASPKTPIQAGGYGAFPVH

By IC50 is commonly meant the point on the concentration scale where inhibition reaches its midpoint. Take `O=C(c1c(F)ccc(NS(=O)(=O)c2cc(F)ccc2F)c1F)c1c[nH]c2ncc(Cl)cc12` [P-2002, N-[3-(5-Chloro-1H-pyrrolo[2,3-b]pyridine-3-carbonyl)-2,4-difluoro-phenyl]-2,5-difluoro-benzenesulfonamide]: the IC50 in series [1] is less than 0.01 µM; in series [2] it was less than 1 µM; in series [3], greater than 10 µM.

Regarding `COc1ncc(-c2cnc3[nH]cc(C(=O)c4c(F)ccc(NS(=O)(=O)c5c(F)cccc5F)c4F)c3c2)cn1` [P-2043, N-{2,4-Difluoro-3-[5-(2-methoxy-pyrimidin-5-yl)-1H-pyrrolo[2,3-b]pyridine-3-carbonyl]-phenyl}-2,6-difluoro-benzenesulfonamide], the results for the IC50 in series [1], in series [2] and in series [3] were less than 0.01 µM, less than 5 µM and greater than 10 µM, respectively.

As to `CCCS(=O)(=O)Nc1ccc(F)c(C(=O)c2c[nH]c3ncc(-c4ccc(SC)nc4)cc23)c1F` [P-2187, Propane-1-sulfonic acid {2,4-difluoro-3-[5-(6-methylsulfanyl-pyridin-3-yl)-1H-pyrrolo[2,3-b]pyridine-3-carbonyl]-phenyl}-amide], the IC50 is less than 0.01 µM in series [1], less than 1 µM in series [2] and greater than 10 µM in series [3].

For `O=C(c1c(F)ccc(NS(=O)(=O)c2c(F)cccc2F)c1F)c1c[nH]c2ncc(Cl)cc12` [P-2003, N-[3-(5-Chloro-1H-pyrrolo[2,3-b]pyridine-3-carbonyl)-2,4-difluoro-phenyl]-2,6-difluoro-benzenesulfonamide], the half-maximal inhibitory concentration (IC50) in series [1] was less than 0.1 µM; in series [2] it was less than 1 µM; in series [3], greater than 10 µM.

Consider `Cc1cnc2[nH]cc(C(=O)c3c(F)ccc(NS(=O)(=O)c4cccnc4)c3F)c2c1` [P-2069, Pyridine-3-sulfonic acid [2,4-difluoro-3-(5-methyl-1H-pyrrolo[2,3-b]pyridine-3-carbonyl)-phenyl]-amide], for which the figures for the IC50 in series [1], in series [2] and in series [3] were less than 0.01 µM, less than 5 µM and greater than 10 µM, respectively.

For `CCCS(=O)(=O)Nc1ccc(F)c(C(=O)c2c[nH]c3ncc(-c4cnc(N5CCCC5)nc4)cc23)c1F` [P-2219, Propane-1-sulfonic acid {2,4-difluoro-3-[5-(2-pyrrolidin-1-yl-pyrimidin-5-yl)-1H-pyrrolo[2,3-b]pyridine-3-carbonyl]-phenyl}-amide], the IC50 in series [1] was less than 0.1 µM; in series [2], less than 0.1 µM; in series [3] it was greater than 10 µM.

In the case of `CCCS(=O)(=O)Nc1ccc(F)c(C(=O)c2c[nH]c3ncc(-c4ccc(C)nc4)cc23)c1F` [P-2213, Propane-1-sulfonic acid {2,4-difluoro-3-[5-(6-methyl-pyridin-3-yl)-1H-pyrrolo[2,3-b]pyridine-3-carbonyl]-phenyl}-amide], the IC50 in series [1] is less than 0.01 µM; in series [2] it was less than 1 µM; in series [3], greater than 10 µM.

For the compound `CCCS(=O)(=O)Nc1ccc(F)c(C(=O)c2c[nH]c3ncc(-c4ccc(S(=O)(=O)NC)cc4)cc23)c1F` [P-2167, 4-{3-[2,6-Difluoro-3-(propane-1-sulfonylamino)-benzoyl]-1H-pyrrolo[2,3-b]pyridin-5-yl}-N-methyl-benzenesulfonamide], the figures for the IC50 in series [1], in series [2] and in series [3] were less than 0.01 µM, less than 1 µM and greater than 10 µM, respectively.

Regarding `CCCS(=O)(=O)Nc1ccc(F)c(C(=O)c2c[nH]c3ncc(-c4ccc(F)nc4)cc23)c1F` [P-2155, Propane-1-sulfonic acid {2,4-difluoro-3-[5-(6-fluoro-pyridin-3-yl)-1H-pyrrolo[2,3-b]pyridine-3-carbonyl]-phenyl}-amide], the IC50 was less than 0.01 µM in series [1], less than 1 µM in series [2] and greater than 10 µM in series [3].

Turning to `CCCS(=O)(=O)Nc1ccc(F)c(C(=O)c2c[nH]c3ncc(-c4ccc(OCCCN5CCCC5)nc4)cc23)c1F` [P-2235, Propane-1-sulfonic acid (2,4-difluoro-3-{5-[6-(3-pyrrolidin-1-yl-propoxy)-pyridin-3-yl]-1H-pyrrolo[2,3-b]pyridine-3-carbonyl}-phenyl)-amide], the IC50 is less than 0.01 µM in series [1], less than 0.1 µM in series [2] and greater than 10 µM in series [3].

Take `CCCS(=O)(=O)Nc1ccc(F)c(C(=O)c2c[nH]c3ncc(-c4ccc(OC)nc4OC)cc23)c1F` [P-2184, Propane-1-sulfonic acid {3-[5-(2,6-dimethoxy-pyridin-3-yl)-1H-pyrrolo[2,3-b]pyridine-3-carbonyl]-2,4-difluoro-phenyl}-amide]: the IC50 in series [1] is less than 0.1 µM; in series [2], less than 1 µM; in series [3], greater than 10 µM.

Regarding `CCCS(=O)(=O)Nc1ccc(F)c(C(=O)c2c[nH]c3ncc(-c4cn[nH]c4)cc23)c1F` [P-2174, Propane-1-sulfonic acid {2,4-difluoro-3-[5-(1H-pyrazol-4-yl)-1H-pyrrolo[2,3-b]pyridine-3-carbonyl]-phenyl}-amide], the IC50 is less than 0.01 µM in series [1], less than 1 µM in series [2] and greater than 10 µM in series [3].

On to `COc1cnc2[nH]cc(C(=O)c3c(F)ccc(NS(=O)(=O)c4cc(F)ccc4F)c3F)c2c1` [P-2010, N-[2,4-Difluoro-3-(5-methoxy-1H-pyrrolo[2,3-b]pyridine-3-carbonyl)-phenyl]-2,5-difluoro-benzenesulfonamide], for which the IC50 in series [1] was less than 0.01 µM; in series [2], less than 1 µM; in series [3] it was greater than 10 µM.

As to `N#Cc1cnc2[nH]cc(C(=O)c3cccc(NS(=O)(=O)c4ccccc4)c3F)c2c1` [P-2056, N-[3-(5-Cyano-1H-pyrrolo[2,3-b]pyridine-3-carbonyl)-2-fluoro-phenyl]-benzenesulfonamide], the IC50 in series [1] is less than 0.01 µM; in series [2] it was less than 5 µM; in series [3], greater than 10 µM.

Consider `N#Cc1cnc2[nH]cc(C(=O)c3c(F)ccc(NS(=O)(=O)c4c(F)cccc4F)c3F)c2c1` [P-2029, N-[3-(5-Cyano-1H-pyrrolo[2,3-b]pyridine-3-carbonyl)-2,4-difluoro-phenyl]-2,6-difluoro-benzenesulfonamide], for which the IC50 in series [1] was less than 0.01 µM; in series [2], less than 5 µM; in series [3], greater than 10 µM.

As for `N#Cc1ccnc2[nH]cc(C(=O)c3c(F)ccc(NS(=O)(=O)c4c(F)cccc4F)c3F)c12` [P-2037, N-[3-(4-Cyano-1H-pyrrolo[2,3-b]pyridine-3-carbonyl)-2,4-difluoro-phenyl]-2,6-difluoro-benzenesulfonamide], the IC50 in series [1] is less than 0.01 µM; in series [2], less than 5 µM; in series [3], greater than 10 µM.

`CCCS(=O)(=O)Nc1ccc(F)c(C(=O)c2c[nH]c3ncc(-c4ccc(CCCOC)nc4)cc23)c1F` [P-2226, Propane-1-sulfonic acid (2,4-difluoro-3-{5-[6-(3-methoxy-propyl)-pyridin-3-yl]-1H-pyrrolo[2,3-b]pyridine-3-carbonyl}-phenyl)-amide]: the IC50 in series [1] is less than 0.01 µM; in series [2] it was less than 0.1 µM; in series [3] it was greater than 10 µM.

On to `CCCS(=O)(=O)Nc1ccc(F)c(C(=O)c2c[nH]c3ncc(-c4cnn(Cc5ccccc5)c4)cc23)c1F` [P-2190, Propane-1-sulfonic acid {3-[5-(1-benzyl-1H-pyrazol-4-yl)-1H-pyrrolo[2,3-b]pyridine-3-carbonyl]-2,4-difluoro-phenyl}-amide], for which the IC50 in series [1] is less than 0.01 µM; in series [2] it was less than 1 µM; in series [3], greater than 10 µM.

In the case of `CCCS(=O)(=O)Nc1ccc(F)c(C(=O)c2c[nH]c3ncc(-c4ccc(C#CCN(CC)CC)nc4)cc23)c1F` [P-2222, Propane-1-sulfonic acid (3-{5-[6-(3-diethylamino-prop-1-ynyl)-pyridin-3-yl]-1H-pyrrolo[2,3-b]pyridine-3-carbonyl}-2,4-difluoro-phenyl)-amide], the IC50 in series [1] was less than 0.01 µM; in series [2], less than 0.1 µM; in series [3], greater than 10 µM.

`Cc1cnc2[nH]cc(C(=O)c3c(F)ccc(NS(=O)(=O)c4cc(F)ccc4F)c3F)c2c1` [P-2015, N-[2,4-Difluoro-3-(5-methyl-1H-pyrrolo[2,3-b]pyridine-3-carbonyl)-phenyl]-2,5-difluoro-benzenesulfonamide]: the IC50 in series [1] was less than 0.01 µM; in series [2], less than 1 µM; in series [3], greater than 10 µM.

For `COc1ccnc2[nH]cc(C(=O)c3c(F)ccc(NS(=O)(=O)c4ccccc4F)c3F)c12` [P-2021, N-[2,4-Difluoro-3-(4-methoxy-1H-pyrrolo[2,3-b]pyridine-3-carbonyl)-phenyl]-2-fluoro-benzenesulfonamide], the IC50 is less than 0.1 µM in series [1], less than 1 µM in series [2] and greater than 10 µM in series [3].

In the case of `COc1ccnc2[nH]cc(C(=O)c3c(F)ccc(NS(=O)(=O)c4c(F)cccc4F)c3F)c12` [P-2031, N-[2,4-Difluoro-3-(4-methoxy-1H-pyrrolo[2,3-b]pyridine-3-carbonyl)-phenyl]-2,6-difluoro-benzenesulfonamide], the IC50 in series [1] was less than 0.1 µM; in series [2], less than 5 µM; in series [3], greater than 10 µM.
